Source: the supplement of paper PMC4862054

Key:
CAL-51 [1] = conditions: 72 h
Procedure, shortened: (§1)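 Compound dissolved in 5 µl medium was placed in 384-well plates before 20 µl of breast cancer cell suspension was added, and the plates were incubated for 72 h. Cells then received 2.5 µl CellTiter-Blue for 2 h at 37 °C, and fluorescence was read at 560/590 nm. EC50 values come from percent-inhibition dose-response fits that were censored at the highest concentration, with plates normalised to vehicle and a positive kill control and rows with a zero drug sensitivity score excluded.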

CAL-148 [2] = conditions: 72 h
Procedure, shortened: as §1

DU-4475 [3] = experiment: drug sensitivity score (DSS), CellTox Green (DSS (AUC-based score)); higher = stronger drug effect (viability inhibition or cytotoxicity); extreme values may be limits of the assay; conditions: incubation time: 72 h
Procedure, shortened: (§2)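 Using 20 µl of cell suspension per well, breast cancer cell lines were seeded into 384-well plates pre-loaded with compound at 5 concentrations in 10-fold steps across a compound-specific 10,000-fold range. Incubation lasted 72 h, after which CellTox Green fluorescence at 485/520 nm and then CellTiter-Glo luminescence, following 10 min at room temperature, were recorded. Each plate was normalised to 0.1 % DMSO and a positive kill control before the drug sensitivity score was derived from the area under the fitted dose-response curve.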

BT-549 [4] = experiment: as above; conditions: incubation time: 72 h
Procedure, shortened: as §2

MCF-10A [5] = experiment: as above; conditions: incubation time: 72 h
Procedure, shortened: as §2

CAL-85-1 = experiment: as above; conditions: incubation time: 72 h
Procedure, shortened: as §2

HCC1143 [6] = experiment: as above; conditions: incubation time: 72 h
Procedure, shortened: as §2

MDA-MB-436 [7] = experiment: as above; conditions: incubation time: 72 h
Procedure, shortened: as §2

HCC1599 = experiment: as above; conditions: incubation time: 72 h
Procedure, shortened: as §2

BT-474 [8] = experiment: as above; conditions: incubation time: 72 h
Procedure, shortened: as §2

CAL-51 [9] = experiment: as above; conditions: incubation time: 72 h
Procedure, shortened: as §2

MDA-MB-468 = experiment: as above; conditions: incubation time: 72 h
Procedure, shortened: as §2

CAL-148 [10] = experiment: as above; conditions: incubation time: 72 h
Procedure, shortened: as §2

MDA-MB-453 [11] = experiment: as above; conditions: incubation time: 72 h
Procedure, shortened: as §2

HDQ-P1 = experiment: as above; conditions: incubation time: 72 h
Procedure, shortened: as §2

MFM-223 = experiment: as above; conditions: incubation time: 72 h
Procedure, shortened: as §2

CAL-120 [12] = experiment: as above; conditions: incubation time: 72 h
Procedure, shortened: as §2

DU-4475 [13] = experiment: drug sensitivity score (DSS), CellTiter-Glo (DSS (AUC-based score)); higher = stronger drug effect (viability inhibition or cytotoxicity); extreme values may be limits of the assay; conditions: incubation time: 72 h
Procedure, shortened: as §2

BT-549 [14] = experiment: as above; conditions: incubation time: 72 h
Procedure, shortened: as §2

MCF-10A [15] = experiment: as above; conditions: incubation time: 72 h
Procedure, shortened: as §2

HCC1143 [16] = experiment: as above; conditions: incubation time: 72 h
Procedure, shortened: as §2

MDA-MB-436 [17] = experiment: as above; conditions: incubation time: 72 h
Procedure, shortened: as §2

BT-474 [18] = experiment: as above; conditions: incubation time: 72 h
Procedure, shortened: as §2

SK-BR-3 = experiment: as above; conditions: incubation time: 72 h
Procedure, shortened: as §2

MDA-MB-453 [19] = experiment: as above; conditions: incubation time: 72 h
Procedure, shortened: as §2

CAL-120 [20] = experiment: as above; conditions: incubation time: 72 h
Procedure, shortened: as §2

Structure (SMILES) | EC50, CellTiter-Blue viability (CAL-51 [1]) | EC50, CellTiter-Blue viability (CAL-148 [2]) | drug sensitivity score (DU-4475 [3]) | drug sensitivity score (BT-549 [4]) | drug sensitivity score (MCF-10A [5]) | drug sensitivity score (CAL-85-1) | drug sensitivity score (HCC1143 [6]) | drug sensitivity score (MDA-MB-436 [7]) | drug sensitivity score (HCC1599) | drug sensitivity score (BT-474 [8]) | drug sensitivity score (CAL-51 [9]) | drug sensitivity score (MDA-MB-468) | drug sensitivity score (CAL-148 [10]) | drug sensitivity score (MDA-MB-453 [11]) | drug sensitivity score (HDQ-P1) | drug sensitivity score (MFM-223) | drug sensitivity score (CAL-120 [12]) | drug sensitivity score (DU-4475 [13]) | drug sensitivity score (BT-549 [14]) | drug sensitivity score (MCF-10A [15]) | drug sensitivity score (HCC1143 [16]) | drug sensitivity score (MDA-MB-436 [17]) | drug sensitivity score (BT-474 [18]) | drug sensitivity score (SK-BR-3) | drug sensitivity score (MDA-MB-453 [19]) | drug sensitivity score (CAL-120 [20])
COc1cc(Nc2ncc3c(n2)-c2ccc(Cl)cc2C(c2c(F)cccc2OC)=NC3)ccc1C(=O)O [MLN8237] | 111 nM | 184 nM |  |  |  |  |  |  |  |  |  |  |  |  |  |  |  |  |  |  |  |  |  |  |  | 
C=CCNC1=C2C[C@@H](C)C[C@H](OC)[C@H](O)[C@@H](C)/C=C(\C)[C@H](OC(N)=O)[C@@H](OC)/C=C\C=C(/C)C(=O)NC(=CC1=O)C2=O [Tanespimycin] | 269 nM | 65.9 nM | 7.07 | 0 | 15.9 | 7.62 | 2.55 | 0 | 0 | 7.84 | 10.9 | 0 | 15.9 | 0 | 10.1 | 0 | 0.533 | 20.2 | 18.5 | 21.6 | 18 | 18.2 | 14.5 | 18.3 | 23.7 | 10.5
Cc1ccc(F)c(NC(=O)Nc2ccc(-c3cccc4[nH]nc(N)c34)cc2)c1 [Linifanib] |  |  | 0 | 0 | 0 | 0 | 0 | 0 | 0 | 0 | 0 | 0 | 0 | 0 | 0 | 0 | 0 | 0 | 0 | 0 | 0 | 0 | 0 | 0 | 0 | 0
CCN1CCN(c2ccc(Nc3cc(N(C)C(=O)Nc4c(Cl)c(OC)cc(OC)c4Cl)ncn3)cc2)CC1 [NVP-BGJ398] |  |  | 0 | 0 | 0 | 0 | 0 | 0 | 0 | 0 | 0 | 0 | 0 | 0 | 0 | 0 | 0.0505 | 0 | 0 | 0 | 0 | 0 | 0 | 0 | 0 | 2.55
S=c1[nH]cnc2nc[nH]c12 [Mercaptopurine] | 3810 nM |  | 0 | 0 | 0 | 0 | 0 | 0 | 0 | 0 | 0 | 0 | 0 | 0 | 0 | 0 | 0 | 4 | 0 | 0 | 0 | 0.565 | 5.51 | 0 | 0 | 4.08
C[C@]1(c2nc3c(C(N)=O)cccc3[nH]2)CCCN1 [Veliparib] |  |  | 0 | 0 | 0 | 0.454 | 0 | 0 | 0 | 0 | 0 | 0 | 2.57 | 0 | 0 | 0 | 0 | 0 | 0 | 0 | 0 | 0 | 0.587 | 0 | 0 | 0
Clc1ccc(C(c2ccccc2Cl)C(Cl)Cl)cc1 (configuration not stated) [Mitotane] |  |  | 0 | 0 | 0 | 0 | 2.11 | 0 | 0 | 0 | 0 | 0 | 0 | 0 | 0 | 0 | 0 | 0 | 0 | 0 | 0 | 0 | 0 | 0 | 0 | 0
N#CC[C@H](C1CCCC1)n1cc(-c2ncnc3[nH]ccc23)cn1 [Ruxolitinib] |  |  | 0 | 0 | 0 | 0 | 0 | 0 | 0 | 0 | 0 | 0 | 0 | 0 | 4.94 | 0 | 0 | 0 | 0 | 0 | 0 | 0 | 0.693 | 0 | 0 | 1.35
O=C(c1ccc(C(=O)N2CCC(N3CCCC3)CC2)c(Nc2ccccc2)c1)N1CCC(N2CCCC2)CC1 [UNC1215] |  |  | 0 | 0 | 0 | 0 | 0.868 | 0 | 0 | 0 | 0 | 0 | 0 | 0 | 0 | 0 | 0 | 0 | 0 | 0 | 0 | 0 | 0 | 0 | 0 | 0
CC(=O)O[C@]1(C(C)=O)CC[C@H]2[C@@H]3C=C(C)C4=CC(=O)CC[C@]4(C)[C@H]3CC[C@@]21C [Megestrol acetate] |  |  | 0 | 0 | 0 | 0 | 0 | 0 | 0 | 0 | 0 | 0 | 0 | 0 | 1.18 | 0 | 0 | 0 | 0 | 0 | 0 | 0 | 0 | 0 | 0 | 0
COc1cc(Nc2ncc3c(n2)-c2ccc(Cl)cc2C(c2c(F)cccc2OC)=NC3)ccc1C(=O)O [Alisertib] |  |  | 0 | 5.31 | 3.47 | 1.48 | 0 | 0 | 0 | 2.03 | 27.9 | 32.7 | 9.1 | 0 | 0 | 0 | 0 | 9.45 | 12.7 | 0 | 8.44 | 11.8 | 8.02 | 0 | 0 | 5.92
C=CC[C@@H]1/C=C(\C)C[C@H](C)C[C@H](OC)[C@H]2O[C@@](O)(C(=O)C(=O)N3CCCC[C@H]3C(=O)O[C@H](/C(C)=C/[C@@H]3CC[C@@H](O)[C@H](OC)C3)[C@H](C)[C@@H](O)CC1=O)[C@H](C)C[C@@H]2OC [Tacrolimus] |  |  | 0 | 0 | 0.439 | 0 | 0 | 0 | 0 | 0 | 0 | 0 | 0 | 0 | 0 | 0 | 0 | 0 | 0 | 0 | 0 | 0 | 0.128 | 0 | 0 | 0
OC[C@H]1O[C@@H](n2cnc3c2N=CNC[C@H]3O)C[C@@H]1O [Pentostatin] |  |  | 0 | 0 | 0 | 0 | 0 | 0 | 0 | 0 | 0 | 0 | 0 | 0 | 0 | 0 | 0 | 0 | 0 | 0 | 0 | 0 | 0.0029 | 0 | 0 | 0
CS(=O)(=O)c1ccc(C(=O)Nc2ccc(Cl)c(-c3ccccn3)c2)c(Cl)c1 [Vismodegib] |  |  | 0 | 0 | 0 | 0 | 0 | 0 | 0 | 0 | 0 | 0 | 0 | 0 | 0 | 0 | 0 | 0 | 0 | 0 | 0 | 0 | 0 | 0 | 0 | 0
